Values of other authors, collected in patent publication US20120283197A1, “Compositions Comprising a Glucose Anti-Metabolite, BHA, and/or BHT” (priority 2011, published 2012).

How the values were obtained:
[1] = tested on: cultured insulin secreting cells
[2] = rats, fed for 18 months, 140 mg/Kg body weight per day
adipocytes = details: rats, fed for 18 months, 140 mg/Kg body weight per day
[3] = tested on: hexokinase or other glycolytic enzymes; details: extracts of mouse lung
[4] = mice, dogs, and other species

## COc1ccc(O)c(C(C)(C)C)c1 [BHA, butylated hydroxyanisole]
[1]
  alloxan-induced increase in insulin secretion: prevent the alloxan-induced increase in insulin secretion
  negative effects of alloxan: blocked the negative effects of alloxan

## Cc1cc(C(C)(C)C)c(O)c(C(C)(C)C)c1 [BHT, butylated hydroxytoluene]
[2]
  insulin sensitivity: increased insulin sensitivity
adipocytes
  age-related reduction in insulin-stimulated glucose transport in adipocytes: partially ameliorated
[3]
  effect on hexokinase or other glycolytic enzymes: no effect

## O=C(CO)[C@@H](O)[C@@H](O)[C@H](O)[C@H](O)CO [Mannoheptulose, mannoheptulose]
[4]
  plasma insulin levels and/or insulin sensitivity: lower plasma insulin levels and/or increase insulin sensitivity
